{"source": "patent US8445496B2", "about": "“Crystalline forms of 4-[(2,4-dichloro-5-methoxyphenyl)amino]-6-methoxy-7-[3-(4-methyl-1-piperazinyl)propoxy]-3-quinolinecarbonitrile and methods of preparing the same” (Wyeth LLC, priority 2005, dated 2013)", "key": {"[1]": {"test": "Conversion of crystal form on treatment with water", "assay_type": "physicochemical", "details": "for form conversion in heated water: water at 90° C. or 95° C.", "description": "Forms II, III, IV and Form VI can all be transformed into Form I by treatment with water, e.g. by heating in water. The water may be at room temperature. The water may be heated to at least about 90° C., and as high as at least about 95° C.\nForm V is the anhydrous form, producing substantially Pattern E in FIGS. 1 and 8 when scanned by XRD, and has the highest transition temperature of all the polymorphic forms, i.e., about 148° C. It is also readily converted to Form I by treatment with heated water. The water is heated to at least about 90° C., and more preferably is heated to at least about 95° C. […] This hydrated form is different from either Form I or V, as shown by the XRD scan in FIG. 4.\nFIG. 3. This is a differential scanning calorimeter (DSC) plot and a theromogravimetric analysis (TGA) plot of Form V after suspension in water for two months and ten days at room temperature."}, "[2]": {"test": "Solubility in water and formulation vehicles"}, "[3]": {"test": "Hygroscopicity by dynamic vapor sorption", "assay_type": "physicochemical", "details": "0% to 90% RH, monohydrate", "description": "The hydroscopicity of the anhydrous Form V and the hydrated forms was determined using dyanamic vapor sorption, including the plot for Form I shown in FIG. 2. This was performed under the following conditions. RH was set at 0%, 30%, 52.5%, 75% and 90%, with the sample exposed for 3 hours at each RH for two full cycles."}, "[4]": {"test": "Solid-state stability on exposure to light, humidity and heat (XRD and HPLC; water loss)", "assay_type": "physicochemical"}, "physchem": {"test": "physchem", "details": "Table 4, (batch size 95, 50, 120, 54, 18.5, 550 g)"}, "[5]": {"details": "Table 4, (batch size 95, 50, 120, 54, 18.5, 550 g), listed as Pattern D"}}, "note": "Entries after “also recorded” stand apart in the source; their conditions may differ."}
{"smiles": "COc1cc(Nc2c(C#N)cnc3cc(OCCCN4CCN(C)CC4)c(OC)cc23)c(Cl)cc1Cl", "note": "[Form V, 4-[(2,4-dichloro-5-methoxyphenyl)amino]-6-methoxy-7-[3-(4-methyl-1-piperazinyl)propoxy]-3-quinolinecarbonitrile]", "values": [{"measurement": "form change in water at room temperature", "setting": "[1]; suspended in water at room temperature, 2 months (two months and ten days), DSC, TGA, XRD", "value": "converted into a hydrated Form II; also recorded: hydrated to a metastable hydrate crystal form"}, {"measurement": "form conversion in heated water", "setting": "[1]", "value": "Converts to “I” in 95 °C"}]}
{"smiles": "CO.COc1cc(Nc2c(C#N)cnc3cc(OCCCN4CCN(C)CC4)c(OC)cc23)c(Cl)cc1Cl", "note": "[Form VI, 4-[(2,4-dichloro-5-methoxyphenyl)amino]-6-methoxy-7-[3-(4-methyl-1-piperazinyl)propoxy]-3-quinolinecarbonitrile methanolate]", "values": [{"measurement": "form conversion in heated water", "setting": "[1]", "value": "Converts to “I” in 95 °C"}]}
{"smiles": "COc1cc(Nc2c(C#N)cnc3cc(OCCCN4CCN(C)CC4)c(OC)cc23)c(Cl)cc1Cl.O", "note": "[Form I, 4-[(2,4-dichloro-5-methoxyphenyl)amino]-6-methoxy-7-[3-(4-methyl-1-piperazinyl)propoxy]-3-quinolinecarbonitrile monohydrate]", "values": [{"measurement": "Solubility, 2% Tween80/0.5% MC 0.06% acetic acid", "setting": "[2]; Table 4, (batch size 95, 50, 120, 54, 18.5, 550 g), listed as Pattern A, monohydrate", "value": "4.25 (pH 5.7) mg/mL"}, {"measurement": "hygroscopicity", "setting": "[3]", "value": "not hygroscopic; also recorded: non-hydroscopic"}, {"measurement": "loss of water at 0% relative humidity", "setting": "[4]; 0% relative humidity for 10 days", "value": "does not lose water"}, {"measurement": "stability to humidity (XRD and HPLC)", "setting": "[4]; 75% humidity at 40° C. for 3 months", "value": "substantially pure and physically unchanged"}, {"measurement": "stability to heat (XRD and HPLC)", "setting": "[4]; 90° C. for 2 weeks", "value": "substantially pure and physically unchanged"}, {"measurement": "stability to light (XRD and HPLC)", "setting": "[4]; 510 foot-candles (~5490 lux) light for two weeks", "value": "substantially pure and physically unchanged"}, {"measurement": "loss of water on heating", "setting": "[4]; heated to 90° C. for over 100 hours", "value": "does not lose water"}, {"measurement": "solubility", "setting": "physchem; aqueous with cosolvent or surfactant or cyclodextrin, 2% Tween80/0.5% MC 0.06% acetic acid", "value": 4000, "unit": "µg/mL"}, {"measurement": "solubility", "setting": "physchem; pH 7.2, water, Water", "value": 1.8, "unit": "µg/mL"}]}
{"smiles": "COc1cc(Nc2c(C#N)cnc3cc(OCCCN4CCN(C)CC4)c(OC)cc23)c(Cl)cc1Cl", "note": "[4-[(2,4-dichloro-5-methoxyphenyl)amino]-6-methoxy-7-[3-(4-methyl-1-piperazinyl)propoxy]-3-quinolinecarbonitrile]", "values": [{"measurement": "solubility enhancement with about 2% Tween80", "setting": "[2]; about 2% Tween80", "value": "about 100 fold"}, {"measurement": "solubility", "setting": "[2]; about 2% Tween80, aqueous with cosolvent or surfactant or cyclodextrin, solubility with addition of about 2% Tween80, about 2% Tween80 (detergent)", "value": "100 to 400", "unit": "µg/mL"}, {"measurement": "solubility", "setting": "[2]; aqueous with cosolvent or surfactant or cyclodextrin, solubility with addition of about 0.06% acetic acid (in-situ acetate salt vehicle), about 2% Tween80 plus about 0.06% acetic acid", "value": "3000 to 4000", "unit": "µg/mL"}, {"measurement": "solubility", "setting": "[2]; de-ionized water, pH 7.2, water, solubility in de-ionized water, partially ionized, resulting pH 7.2", "value": 1.8, "unit": "µg/mL"}, {"measurement": "solubility enhancement with about 0.06% acetic acid", "setting": "[2]; in-situ acetate salt vehicle", "value": "~1000", "unit": "fold"}, {"measurement": "solubility", "setting": "[2]; pH 8, aqueous buffer, intrinsic (neutral form) solubility, pH 8.0", "value": "~0.06", "unit": "µg/mL"}, {"measurement": "solubility", "setting": "[2]; stomach acid, simulated gastric fluid, solubility in stomach acid", "value": "> 200000", "unit": "µg/mL"}]}
{"smiles": "COc1cc(Nc2c(C#N)cnc3cc(OCCCN4CCN(C)CC4)c(OC)cc23)c(Cl)cc1Cl", "note": "[Form II, 4-[(2,4-dichloro-5-methoxyphenyl)amino]-6-methoxy-7-[3-(4-methyl-1-piperazinyl)propoxy]-3-quinolinecarbonitrile]", "values": [{"measurement": "form conversion in heated water", "setting": "[1]; listed as B", "value": "Converts to “I” in 95 °C"}]}
{"smiles": "CC(C)O.COc1cc(Nc2c(C#N)cnc3cc(OCCCN4CCN(C)CC4)c(OC)cc23)c(Cl)cc1Cl", "note": "[Form III, 4-[(2,4-dichloro-5-methoxyphenyl)amino]-6-methoxy-7-[3-(4-methyl-1-piperazinyl)propoxy]-3-quinolinecarbonitrile monoisopropyl alcoholate]", "values": [{"measurement": "form conversion in heated water", "setting": "[1]", "value": "Converts to “I” in 95 °C"}]}
{"smiles": "COc1cc(Nc2c(C#N)cnc3cc(OCCCN4CCN(C)CC4)c(OC)cc23)c(Cl)cc1Cl", "note": "[Form IV, 4-[(2,4-dichloro-5-methoxyphenyl)amino]-6-methoxy-7-[3-(4-methyl-1-piperazinyl)propoxy]-3-quinolinecarbonitrile]", "values": [{"measurement": "form conversion in heated water", "setting": "[1]; listed as D", "value": "Converts to “I” in 90 °C"}, {"measurement": "solubility", "setting": "[2]; 2% Tween80/0.5% MC 0.06% acetic acid, aqueous with cosolvent or surfactant or cyclodextrin, Solubility, Table 4, (batch size 95, 50, 120, 54, 18.5, 550 g)", "value": 3500, "unit": "µg/mL"}, {"measurement": "solubility", "setting": "[2]; 2% Tween 80/03% MC, aqueous with cosolvent or surfactant or cyclodextrin, Solubility, Table 4, (batch size 95, 50, 120, 54, 18.5, 550 g)", "value": 70, "unit": "µg/mL"}, {"measurement": "Solubility, 2% Tween80/0.5% MC 0.06% acetic acid", "setting": "[2]; [5]", "value": "2.68 (pH 5.2) mg/mL"}, {"measurement": "Solubility, 2% Tween 80/03% MC", "setting": "[2]; [5]", "value": "0.06 (pH 7.8) mg/mL"}]}
